From ChEMBL document CHEMBL1132090, “Synthesis of a phostone glycomimetic of the endothelin converting enzyme inhibitor phosphoramidon” (Bioorg Med Chem Lett, 1999)
The source made the active and inactive calls. The calls are words filed in the database; no cut-off is given here.

Assays:
[1] = Inhibitory activity against thermolysin induced by big ET-1 which inhibited hypertensive effect; active; format: functional
[2] = target: T1, Endothelin-converting enzyme 1 (Homo sapiens, UniProt P42892); assay: Concentration required to inhibit conversion of […] after deprotection and purification by reverse-phase HPLC; format: functional
T1 sequence (P42892 whole entry): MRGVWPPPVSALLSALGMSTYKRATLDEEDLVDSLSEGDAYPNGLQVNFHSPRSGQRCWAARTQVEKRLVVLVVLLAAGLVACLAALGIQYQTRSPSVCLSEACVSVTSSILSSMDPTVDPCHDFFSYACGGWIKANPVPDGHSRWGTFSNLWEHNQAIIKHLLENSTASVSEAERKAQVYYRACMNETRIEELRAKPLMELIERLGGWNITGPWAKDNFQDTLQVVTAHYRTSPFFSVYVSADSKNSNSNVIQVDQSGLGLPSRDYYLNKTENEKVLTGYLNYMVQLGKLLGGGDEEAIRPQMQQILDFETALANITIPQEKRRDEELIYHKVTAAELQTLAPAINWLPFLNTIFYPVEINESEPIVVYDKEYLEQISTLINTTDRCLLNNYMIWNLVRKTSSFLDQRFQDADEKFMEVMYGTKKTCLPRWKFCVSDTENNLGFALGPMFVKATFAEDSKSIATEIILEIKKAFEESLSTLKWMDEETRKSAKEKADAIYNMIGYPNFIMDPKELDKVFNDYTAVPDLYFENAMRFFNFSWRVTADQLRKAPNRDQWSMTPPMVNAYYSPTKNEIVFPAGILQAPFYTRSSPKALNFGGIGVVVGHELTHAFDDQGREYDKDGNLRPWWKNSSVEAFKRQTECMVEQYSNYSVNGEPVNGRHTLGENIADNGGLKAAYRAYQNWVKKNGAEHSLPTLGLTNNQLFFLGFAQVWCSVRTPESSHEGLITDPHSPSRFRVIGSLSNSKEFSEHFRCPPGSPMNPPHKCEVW

Row | SMILES | Inhibitory activity [1] | IC50 [2]
1 | CC(C)C[C@H](NP(=O)(O)OC1OC(C)C(O)C(O)C1O)C(=O)N[C@@H](Cc1c[nH]c2ccccc12)C(=O)O (some centres not stated) | Active | –
2 | CC(C)C[C@H](NP1(=O)OC(C)C(O)C(O)C1O)C(=O)N[C@@H](Cc1c[nH]c2ccccc12)C(=O)O (some centres not stated) | – | 5.05 µM
